The values below come from patent US20240400561A1, “NOVEL SUBSTITUTED SULFONYLUREA COMPOUNDS AS INHIBITORS OF INTERLEUKIN-1 ACTIVITY” (Viva Star Biosciences (Suzhou) Co., Ltd., priority 2021, published 2024).

pIC50: −log10 of the molar value.

The assay deals with T1, NLRP3 (Homo sapiens, UniProt Q96P20).
T1 construct: Seed THP-1 cells (5.56*10^5 cells/mL) containing 1.0 ug/mL LPS; endogenous in cells; host or cells: THP-1 cells
The experiment in a line: THP-1 cell assay (LPS priming, nigericin), IL1β release by HTRF; called pyroptosis assay, THP IC50. The format is cell-based. Conditions: NLRP3 inhibitory activity; THP-1 cells, 1.0 ug/mL LPS, compound 3 hrs, nigericin 5 uM 1 hr, IL1β in supernatant. The essentials: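 THP-1 cells were primed with 1.0 ug/mL LPS in serum-free RPMI 1640 alongside compound (10 doses from 5 uM, 1:3) for 3 h at 37° C. Nigericin (final 5 uM) was then added for 1 h. Supernatant IL1β was quantified by HTRF against a standard curve, with IC50 from a four-parameter fit.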

T1 sequence (Q96P20 whole entry): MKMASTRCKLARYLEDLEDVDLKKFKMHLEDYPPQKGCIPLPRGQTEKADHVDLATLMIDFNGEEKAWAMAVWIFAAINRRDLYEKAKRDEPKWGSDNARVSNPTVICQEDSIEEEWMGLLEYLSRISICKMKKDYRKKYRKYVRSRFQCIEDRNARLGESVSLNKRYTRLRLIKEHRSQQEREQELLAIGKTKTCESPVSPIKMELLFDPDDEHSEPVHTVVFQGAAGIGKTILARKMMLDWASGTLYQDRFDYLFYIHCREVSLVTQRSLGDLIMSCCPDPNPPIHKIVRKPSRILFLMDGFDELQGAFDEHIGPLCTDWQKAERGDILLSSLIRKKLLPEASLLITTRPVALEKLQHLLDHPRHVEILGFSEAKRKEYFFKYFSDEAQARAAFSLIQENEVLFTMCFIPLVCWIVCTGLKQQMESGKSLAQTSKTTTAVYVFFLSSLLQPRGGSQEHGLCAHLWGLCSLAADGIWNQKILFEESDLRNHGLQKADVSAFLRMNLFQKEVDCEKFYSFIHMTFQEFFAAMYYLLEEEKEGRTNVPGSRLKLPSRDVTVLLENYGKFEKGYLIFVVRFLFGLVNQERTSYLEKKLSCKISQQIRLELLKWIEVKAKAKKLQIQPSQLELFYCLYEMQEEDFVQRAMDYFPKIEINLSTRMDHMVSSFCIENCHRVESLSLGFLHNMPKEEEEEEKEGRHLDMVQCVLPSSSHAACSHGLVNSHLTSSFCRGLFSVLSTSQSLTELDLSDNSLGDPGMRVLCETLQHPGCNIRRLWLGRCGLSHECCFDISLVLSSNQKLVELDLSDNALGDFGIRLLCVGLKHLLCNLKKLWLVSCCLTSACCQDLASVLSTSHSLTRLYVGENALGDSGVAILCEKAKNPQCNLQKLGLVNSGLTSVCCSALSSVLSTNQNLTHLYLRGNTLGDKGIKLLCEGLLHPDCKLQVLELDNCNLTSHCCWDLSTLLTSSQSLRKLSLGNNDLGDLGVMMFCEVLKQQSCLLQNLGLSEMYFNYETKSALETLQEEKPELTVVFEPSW

Broadly, the pIC50 is −log10 of the IC50, conventionally taken in molar units. A higher pIC50 goes with a small IC50. `CC(C)(O)c1csc(S(=O)(=O)NC(=O)Nc2c(-c3ccn4cncc4c3)ccc3c2CCC3)c1` [Example 54, 4-(2-hydroxypropan-2-yl)-N-((5-(imidazo[1,5-a]pyridin-7-yl)-2,3-dihydro-1H-inden-4-yl)carbamoyl)thiophene-2-sulfonamide]: the pIC50 is ≥ 7.52. As to `Cc1cc2c(c(NC(=O)NS(=O)(=O)c3cnn(CC4CC4)c3)c1-c1ccc3nccn3c1)CCC2` [Example 19, 1-(cyclopropylmethyl)-N-((5-(imidazo[1,2-a]pyridin-6-yl)-6-methyl-2,3-dihydro-1H-inden-4-yl)carbamoyl)-1H-pyrazole-4-sulfonamide], the pIC50 was ≥ 7.52. Compound `CC(C)(O)c1csc(S(=O)(=O)NC(=O)Nc2c(-c3cnc4[nH]ccc4c3)ccc3c2CCC3)c1` [Example 46, N-((5-(1H-pyrrolo[2,3-b]pyridin-5-yl)-2,3-dihydro-1H-inden-4-yl)carbamoyl)-4-(2-hydroxypropan-2-yl)thiophene-2-sulfonamide] had a pIC50 of 6.52 to 7.52. Turning to `Cc1cc2c(c(NC(=O)NS(=O)(=O)c3cc(C(O)C4CC4)n(C)n3)c1-c1ccn3nccc3c1)CCC2` (stereo not shown) [Example 16, 5-(cyclopropyl(hydroxy)methyl)-1-methyl-N-((6-methyl-5-(pyrazolo[1,5-a]pyridin-5-yl)-2,3-dihydro-1H-inden-4-yl)carbamoyl)-1H-pyrazole-3-sulfonamide], the pIC50 was ≥ 7.52.

As for `O=C(Nc1c(-c2ccn3nccc3c2)ccc2c1CCC2)NS(=O)(=O)c1cncc(NC2CC2)c1` [Example 31, 5-(cyclopropylamino)-N-((5-(pyrazolo[1,5-a]pyridin-5-yl)-2,3-dihydro-1H-inden-4-yl)carbamoyl)pyridine-3-sulfonamide], the negative logarithm of the IC50 (pIC50) was ≥ 7.52. For the compound `Cc1cc2c(c(NC(=O)NS(=O)(=O)c3ccn(C4CCC4)n3)c1-c1ccn3nccc3c1)CCC2` [Example 23, 1-cyclobutyl-N-((6-methyl-5-(pyrazolo[1,5-a]pyridin-5-yl)-2,3-dihydro-1H-inden-4-yl)carbamoyl)-1H-pyrazole-3-sulfonamide], the pIC50 is ≥ 7.52. With `Cn1cnc2ccc(-c3ccc4c(c3NC(=O)NS(=O)(=O)c3cc(C(C)(C)O)cs3)CCC4)cc21` [Example 43, 4-(2-hydroxypropan-2-yl)-N-((5-(1-methyl-1H-benzo[d]imidazol-6-yl)-2,3-dihydro-1H-inden-4-yl)carbamoyl)thiophene-2-sulfonamide], the pIC50 is 6.00 to 6.52.

As to `CC(C)(O)c1csc(S(=O)(=O)NC(=O)Nc2c(-c3ccc4ccnn4c3)ccc3c2CCC3)c1` [Example 68, 4-(2-hydroxypropan-2-yl)-N-((5-(pyrazolo[1,5-a]pyridin-6-yl)-2,3-dihydro-1H-inden-4-yl)carbamoyl)thiophene-2-sulfonamide], the pIC50 was ≥ 7.52. Regarding `Cn1ccc2c(-c3ccc4c(c3NC(=O)NS(=O)(=O)c3cc(C(C)(C)O)cs3)CCC4)ccnc21` [Example 41, 4-(2-hydroxypropan-2-yl)-N-((5-(1-methyl-1H-pyrrolo[2,3-b]pyridin-4-yl)-2,3-dihydro-1H-inden-4-yl)carbamoyl)thiophene-2-sulfonamide], the pIC50 was ≥ 7.52. The compound `COC(c1cc(S(=O)(=O)NC(=O)Nc2c3c(cc(C)c2-c2ccn4nccc4c2)CCC3)nn1C)C1CC1` (stereo not shown) [Example 15, 5-(cyclopropyl(methoxy)methyl)-1-methyl-N-((6-methyl-5-(pyrazolo[1,5-a]pyridin-5-yl)2,3-dihydro-1H-inden-4-yl)carbamoyl)-1H-pyrazole-3-sulfonamide] gave a pIC50 of 6.52 to 7.52. `Cc1cc2c(c(NC(=O)NS(=O)(=O)c3cnn(C4CC4)c3)c1-c1ccn3nccc3c1)CCC2` [Example 14, 1-cyclopropyl-N-((6-methyl-5-(pyrazolo[1,5-a]pyridin-5-yl)-2,3-dihydro-1H-inden-4-yl)carbamoyl)-1H-pyrazole-4-sulfonamide]: the pIC50 was ≥ 7.52. Compound `CC(C)(O)c1csc(S(=O)(=O)NC(=O)Nc2c(-c3cnc4ccnn4c3)ccc3c2CCC3)c1` [Example 64, 4-(2-hydroxypropan-2-yl)-N-((5-(pyrazolo[1,5-a]pyrimidin-6-yl)-2,3-dihydro-1H-inden-4-yl)carbamoyl)thiophene-2-sulfonamide] had a pIC50 of 5.70 to 6.00. Compound `Cc1cc2c(c(NC(=O)NS(=O)(=O)C3CC(OC4CC4)C3)c1-c1ccnc3[nH]ccc13)CCC2` (stereo not shown) [Example 3, 3-cyclopropoxy-N-((6-methyl-5-(1H-pyrrolo[2,3-b]pyridin-4-yl)-2,3-dihydro-1H-inden-4-yl)carbamoyl)cyclobutane-1-sulfonamide] had a pIC50 of 6.52 to 7.52. Turning to `Cc1cc2c(c(NC(=O)NS(=O)(=O)c3cnn(CC4CC4)c3)c1-c1ccc3ccnn3c1)CCC2` [Example 21, 1-(cyclopropylmethyl)-N-((6-methyl-5-(pyrazolo[1,5-a]pyridin-6-yl)-2,3-dihydro-1H-inden-4-yl)carbamoyl)-1H-pyrazole-4-sulfonamide], the pIC50 is ≥ 7.52. On to `Cc1cc2c(c(NC(=O)NS(=O)(=O)c3ccn(C4CC4)n3)c1-c1ccc3ccnn3c1)CCC2` [Example 92, 1-cyclopropyl-N-((6-methyl-5-(pyrazolo[1,5-a]pyridin-6-yl)-2,3-dihydro-1H-inden-4-yl)carbamoyl)-1H-pyrazole-3-sulfonamide], for which the pIC50 was 6.52 to 7.52.

Regarding `CC(C)(O)c1csc(S(=O)(=O)NC(=O)Nc2c(-c3ccc4ncnn4c3)ccc3c2CCC3)c1` [Example 52, N-((5-([1,2,4]triazolo[1,5-a]pyridin-6-yl)-2,3-dihydro-1H-inden-4-yl)carbamoyl)-4-(2-hydroxypropan-2-yl)thiophene-2-sulfonamide], the pIC50 was ≥ 7.52. As to `O=C(Nc1c2c(cc(CO)c1-c1ccn3nccc3c1)CCC2)NS(=O)(=O)c1ccn(C2CC2)n1` [Example 98, 1-cyclopropyl-N-((6-(hydroxymethyl)-5-(pyrazolo[1,5-a]pyridin-5-yl)-2,3-dihydro-1H-inden-4-yl)carbamoyl)-1H-pyrazole-3-sulfonamide], the pIC50 is 6.52 to 7.52. Then `Cc1cc2c(c(NC(=O)NS(=O)(=O)c3cncc(NC4CC4)c3)c1-c1ccn3nccc3c1)CCC2` [Example 37, 5-(cyclopropylamino)-N-((6-methyl-5-(pyrazolo[1,5-a]pyridin-5-yl)-2,3-dihydro-1H-inden-4-yl)carbamoyl)pyridine-3-sulfonamide], with ≥ 7.52; and `Cc1cc2c(c(NC(=O)NS(=O)(=O)c3ccn(CC4CC4)n3)c1-c1ccn3nccc3c1)OCC2` [Example 86, 1-(cyclopropylmethyl)-N-((5-methyl-6-(pyrazolo[1,5-a]pyridin-5-yl)-2,3-dihydrobenzofuran-7-yl)carbamoyl)-1H-pyrazole-3-sulfonamide], with 6.52 to 7.52.
